# Reference: patent publication US20190022253A1, “UNIT DOSAGE OF APADENOSON” (University of Virginia Patent Foundation, priority 2008, published 2019)
# How the values were obtained:
# [1] = system: patients; experiment: Phase II study: coronary blood flow velocity monitored with a flow wire; type: in vivo, human
# Procedure: that can be used in clinical perfusion imaging techniques (e.g., for diagnosing and assessing the extent of coronary artery disease) in U.S. Pat. No. 6,322,771. This agent has since been taken into Phase I and II clinical trials. In 2005, Dr. […] et al reported to the American Heart Association on the preliminary results of 127 patient SPECT Tc^99m sestamibi imaging studying comparing adenosine with Apadenoson using either 1 μg/kg or 2 μg/kg intravenous boluses of Apadenoson. […] In 2006, Dr. Kern et al reported to the American Heart Association the results of a Phase II study of Apadenoson, one goal of which was to determine an appropriate dose for Phase III clinical trials. Intravenous bolus dosages of 0.5, 1.0, 2.0, and 2.5 μg/kg were studied. […] In this Phase II study in 100 patients, conducted by Dr. Morton Kern, an independent investigator at UC Irvine, […] was administered by intracoronary injection, and coronary blood flow velocity was monitored with a flow wire. […] The previously reported increase in coronary blood flow velocity (CBFV) corresponding to an increase in dose of Apadenoson from 0.5 to 2 μg/kg was based on the increase in CBFV in a limited number of patients (see FIG. 1).
# [2] = system: patients; details: intravenous bolus, dosage from 0.5 to 2 μg/kg; limited number of patients (FIG. 1); Kern et al 2006; cited from earlier work
Compound,dose response curve ([1]; 1 μg/kg or 2 μg/kg administered),"dose response of coronary blood flow velocity (CBFV) ([1]; entire sample of patients (FIG. 2, 33 patients), dose ≥1 μg/kg, in particular between 1 and 2.5 μg/kg)","peak flow compared with adenosine ([1]; increasing bolus doses, one patient (FIG. 1))",average peak velocity for coronary blood flow versus dose [2],"coronary blood flow velocity ([1]; three intracoronary injections, one patient (FIG. 1))"
CCNC(=O)[C@H]1O[C@@H](n2cnc3c(N)nc(C#CC[C@H]4CC[C@H](C(=O)OC)CC4)nc32)[C@H](O)[C@@H]1O [Apadenoson],no dose response curve is seen,no dose response is seen,achieved peak flow equivalent to adenosine,increase with a corresponding increase in dosage,
"Nc1ncnc2c1ncn2[C@@H]1O[C@H](CO)[C@@H](O)[C@H]1O [adenosine, reference compound]",,,,,increased blood flow velocity
